According to patent US20190160089A1, “COMBINATION TREATMENT WITH ANTIBODY-DRUG CONJUGATES AND CYTARABINE” (IMMUNOGEN, INC., priority 2017, published 2019):

Legend:
[1] = system: MV4-11 cells, a human AML cell line; experiment: In vivo efficacy in MV4-11 disseminated xenograft model; design: species or system mice; settings: cytarabine alone 75 mg/kg QD×5 days 24-28
Method: (§1) The measured end-point was survival. […] Spontaneous deaths were recorded when they were discovered. For disseminated models, Tumor Growth Delay is calculated as T−C, where T is the median survival time (in days) of a treated group and C is the median survival time (in days) of the vehicle control group. The Percent Increased Life Span (% ILS) for disseminated models is calculated using the following formula: % ILS=(T−C)/C×100%.
The cyclophosphamide (Sigma, C0768, Lot # MKBX1822V) was dissolved in 0.9% NaCl and was administered intraperitoneally to the mice on day −3 and day −2 prior to MV4-11 cell inoculation.
Following cyclophosphamide treatment as described above, the mice were each injected intravenously in the lateral tail vein with 3×10^6 MV4-11 cells, a human AML cell line, in 100 μl of serum-free medium on day 0 in the study.
Cytarabine was given once a day (QD) at a dose of 75 mg/kg for five consecutive days (×5) and always administered on the same fixed set of days in the study time line: days 24, 25, 26, 27 and 28.
Lastly, Group K received QW×3 dosing of 1 μg/kg by DGN462 (0.0556 mg/kg by antibody) of a non-targeted control conjugate, Ab-DGN462, on a day 21, 28 and 35 dosing schedule (“Day 21”, with FcR blocking).

[2] = system: Molm-13 cells, a human AML cell line; experiment: In vivo efficacy in Molm-13 disseminated xenograft model; design: species or system mice; settings: cytarabine alone 75 mg/kg QD×5 days 7-11
Method: as §1
The cyclophosphamide (Sigma, C0768, Lot # MKBX1822V) was dissolved in 0.9% NaCl and was administered intraperitoneally to the mice on day −2 prior to Molm-13 cell inoculation on day 0.
Following cyclophosphamide treatment as described above, the mice were each injected intravenously in the lateral tail vein with 2×10^5 Molm-13 cells, a human AML cell line, in 100 μl of serum-free medium on day 0 in the study.
Cytarabine, in contrast, was given once a day (QD) at a dose of 75 mg/kg for five consecutive days (×5) and always on a fixed set of days in the study time line: Days 7, 8, 9, 10 and 11.
The results are represented in Table 5 (below) and in FIG. 3.

MOLM-13 = experiment: In vitro CD33 expression post-treatment with cytarabine (flow cytometry, PE anti-CD33); assay type: cell-based, human; settings: cytarabine 400 nM, 15, 24, 39, 48 hours post-treatment
Method: (§2) CD33 expression was assessed post-treatment with cytarabine. In these experiments, two AML cell lines with cell surface display of CD33 and cytarabine sensitivity were used: MV4-11 and MOLM-13. The potency-relative doses were chosen for each treatment, relative to IC50s generated from 96-hour cytotoxicity assays. […] Time points at 15 hours, 24 hours, 39 hours, and 48 hours post-treatment with cytarabine were chosen for cell surface CD33 assessment. Cells were stained with, then washed of excess, PE-conjugated anti-CD33 mAb. Flow cytometric analyses of PE MFI were run on a FACSCanto II flow cytometer. PE-MFIs at each timepoint were normalized to PE-MFIs of untreated control samples and normalized PE-MFIs were considered to represent relative fold-changes in surface CD33 binding sites.

MV4-11 = experiment: as above; assay type: cell-based, human; settings: cytarabine 2,500 nM, 15, 24, 39, 48 hours post-treatment
Method: as §2

[3] = system: EOL-1 cells, a human AML cell line; experiment: In vivo efficacy in EOL-1 subcutaneous xenograft model; settings: EOL-1 sc xenograft; IMGN779 5 μg/kg day 10; cytarabine 75 mg/kg days 10-14; text: long-term CRs on day 90
Method: The mice were weighed twice a week and were monitored for clinical signs throughout the duration of the study. Animals were euthanized when hind leg paralysis was present, body weight decreased by >20% of pre-treatment weight, tumor ulceration occurred, or when any signs of distress were visible. Tumor volumes were measured one to two times weekly in three dimensions using a caliper. […] Tumor Growth Inhibition (T/C Value) was also assessed using the following formula: T/C (%)=(Median tumor volume of the treated/Median tumor volume of the control)×100%. Tumor volume was determined simultaneously for the treated (T) and the vehicle control (C) groups when tumor volume of the vehicle control reached a predetermined size (Bissery et al., Cancer Res. 51: 4845-52 (1991). The daily median tumor volume of each treated group was determined, including tumor-free mice (0 mm^3). According to NCI standards, a T/C≤42% is the minimum level of anti-tumor activity. A T/C<10% is considered a high anti-tumor activity level.
Female athymic nude mice were each inoculated with 1×10^7 EOL-1 cells, a human AML cell line, in 100 μl serum free medium subcutaneously in the right flank. […]

CD33 = CD33 (Homo sapiens, UniProt P20138); settings: CD33 on the surface of CD33-positive cells; cited from earlier work
Sequence of CD33 (P20138 18-364): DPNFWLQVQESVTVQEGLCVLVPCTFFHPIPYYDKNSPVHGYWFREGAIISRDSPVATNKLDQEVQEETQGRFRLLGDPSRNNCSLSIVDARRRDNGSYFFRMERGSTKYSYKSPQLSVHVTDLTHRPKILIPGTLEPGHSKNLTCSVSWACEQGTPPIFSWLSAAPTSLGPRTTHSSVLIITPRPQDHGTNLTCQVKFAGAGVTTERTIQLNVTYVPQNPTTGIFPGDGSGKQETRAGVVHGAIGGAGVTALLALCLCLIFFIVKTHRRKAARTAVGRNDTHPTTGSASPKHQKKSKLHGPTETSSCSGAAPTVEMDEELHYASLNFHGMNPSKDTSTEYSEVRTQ

Compound | Median Survival Time ([1]; NOD SCID mice) [days] | % Increased Life Span (ILS) [1] [%] | Result [1] | Tumor Growth Delay (T-C, Days) [1] [days] | Median Survival Time ([2]; NOD SCID mice) [days] | % Increased Life Span (ILS) [2] [%] | Result [2] | Tumor Growth Delay (T-C, Days) [2] [days] | CD33 transcription and cell surface expression (MOLM-13) | CD33 transcription and cell surface expression (MV4-11) | Tumor Free Survivors (Day 90) [3] | binding affinity to CD33 (CD33)
Nc1ccn([C@@H]2O[C@H](CO)[C@@H](O)[C@@H]2O)c(=O)n1 [Cytarabine, cytosine arabinoside] | 46 | 0 | Inactive | 0 | 20 | 0 | Inactive | 0 | dose- and time-dependent increase | dose- and time-dependent increase | 0/6 | 
My9-6: murine anti-CD33 antibody from which huMy9-6 is derived |  |  |  |  |  |  |  |  |  |  |  | high affinity
